# Source: PubChem BioAssay AID1963863 (Molecular Pharmacology Branch, DTP, NCI, 2024)
# System: 931267-113-T-J1-PDC KRAS spheroid with HUVEC/MSC, viability
# Assay: Anticancer human tumor 931267-113-T-J1-PDC patient-derived colon adenocarcinoma cell line growth inhibition [KRAS2]
# Conditions: for viability, T/C: stronger effect = lower value
# Procedure, shortened: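 KRAS-mutant tumor cells were grown as spheroids with HUVEC endothelial cells and human MSCs as stroma. Targeted agents were tested alone and with KRAS pathway inhibitors. Doses started at or near clinical Cmax, or 10 microM, descending half-log.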
# [1] = curve of first compound, second compound 0.1 µM
# [2] = curve of first compound, second compound 0.316 µM
# [3] = curve of first compound, second compound 1 µM
# [4] = curve of first compound, second compound 3.16 µM
# [5] = curve of first compound, second compound 10 µM
# [6] = second compound 0.1 µM, first compound 0.0316 µM
# [7] = second compound 0.1 µM, first compound 0.1 µM
# [8] = second compound 0.1 µM, first compound 0.316 µM
# [9] = second compound 0.1 µM, first compound 1 µM
# [10] = second compound 0.1 µM, first compound 3.16 µM
# [11] = second compound 0.1 µM, first compound 10 µM
# [12] = second compound 0.316 µM, first compound 0.0316 µM
# [13] = second compound 0.316 µM, first compound 0.1 µM
# [14] = second compound 0.316 µM, first compound 0.316 µM
# [15] = second compound 0.316 µM, first compound 1 µM
# [16] = second compound 0.316 µM, first compound 3.16 µM
# [17] = second compound 0.316 µM, first compound 10 µM
# [18] = second compound 1 µM, first compound 0.0316 µM
# [19] = second compound 1 µM, first compound 0.1 µM
# [20] = second compound 1 µM, first compound 0.316 µM
# [21] = second compound 1 µM, first compound 1 µM
# [22] = second compound 1 µM, first compound 3.16 µM
# [23] = second compound 1 µM, first compound 10 µM
# [24] = second compound 3.16 µM, first compound 0.0316 µM
# [25] = second compound 3.16 µM, first compound 0.1 µM
# [26] = second compound 3.16 µM, first compound 0.316 µM
# [27] = second compound 3.16 µM, first compound 1 µM
# [28] = second compound 3.16 µM, first compound 3.16 µM
# [29] = second compound 3.16 µM, first compound 10 µM
# [30] = second compound 10 µM, first compound 0.0316 µM
# [31] = second compound 10 µM, first compound 0.1 µM
# [32] = second compound 10 µM, first compound 0.316 µM
# [33] = second compound 10 µM, first compound 1 µM
# [34] = second compound 10 µM, first compound 3.16 µM
# [35] = second compound 10 µM, first compound 10 µM
# 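Note: compound exposure lasted 7 days before the readout.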
# 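Throughout, for viability, T/C: 100% = DMSO vehicle control viability.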
compound,measurement,setting,value
Cn1nccc1Nc1nccc(-c2cc3c(s2)C(C)(C)N(CCN2CCOCC2)C3=O)n1 + C=CC(=O)N1CCN(c2nc(=O)n(-c3c(C)ccnc3C(C)C)c3nc(-c4c(O)cccc4F)c(F)cc23)C(C)C1,IC50,[1],568 nM
same,IC50,[2],601 nM
same,IC50,[3],598 nM
same,IC50,[4],611 nM
same,IC50,[5],703 nM
same,"viability, T/C",[6],94.2%
same,"viability, T/C",[7],90.4%
same,"viability, T/C",[8],63.4%
same,"viability, T/C",[9],38.2%
same,"viability, T/C",[10],5.19%
same,"viability, T/C",[11],5.01%
same,"viability, T/C",[12],109%
same,"viability, T/C",[13],84.2%
same,"viability, T/C",[14],74.9%
same,"viability, T/C",[15],34%
same,"viability, T/C",[16],8.86%
same,"viability, T/C",[17],5.22%
same,"viability, T/C",[18],82%
same,"viability, T/C",[19],104%
same,"viability, T/C",[20],72.8%
same,"viability, T/C",[21],30.6%
same,"viability, T/C",[22],6.74%
same,"viability, T/C",[23],6.41%
same,"viability, T/C",[24],93.3%
same,"viability, T/C",[25],101%
same,"viability, T/C",[26],81.1%
same,"viability, T/C",[27],26.6%
same,"viability, T/C",[28],9.57%
same,"viability, T/C",[29],9.73%
same,"viability, T/C",[30],91.2%
same,"viability, T/C",[31],95.3%
same,"viability, T/C",[32],74.9%
same,"viability, T/C",[33],39.3%
same,"viability, T/C",[34],14.1%
same,"viability, T/C",[35],11%
O=C(c1cc(Cc2n[nH]c(=O)c3ccccc23)ccc1F)N1CCN(C(=O)C2CC2)CC1 + CC1OCC2(CCN(c3cnc(Sc4ccnc(N)c4Cl)c(N)n3)CC2)C1N,IC50,[1],> 10000 nM
same,IC50,[2],> 10000 nM
same,IC50,[3],> 10000 nM
same,IC50,[4],> 10000 nM
same,IC50,[5],3160 nM
same,"viability, T/C",[6],72.8%
same,"viability, T/C",[7],70.8%
same,"viability, T/C",[8],72.9%
same,"viability, T/C",[9],68.4%
same,"viability, T/C",[10],81.5%
same,"viability, T/C",[11],73.5%
same,"viability, T/C",[12],64.2%
same,"viability, T/C",[13],72.7%
same,"viability, T/C",[14],59.1%
same,"viability, T/C",[15],66.9%
same,"viability, T/C",[16],54.8%
same,"viability, T/C",[17],62.4%
same,"viability, T/C",[18],86.6%
same,"viability, T/C",[19],89.5%
same,"viability, T/C",[20],89.1%
same,"viability, T/C",[21],86%
same,"viability, T/C",[22],73.3%
same,"viability, T/C",[23],89.1%
same,"viability, T/C",[24],56.6%
same,"viability, T/C",[25],48%
same,"viability, T/C",[26],52.6%
same,"viability, T/C",[27],64.6%
same,"viability, T/C",[28],56.4%
same,"viability, T/C",[29],50.8%
same,"viability, T/C",[30],59.9%
same,"viability, T/C",[31],60.2%
same,"viability, T/C",[32],99%
same,"viability, T/C",[33],46%
same,"viability, T/C",[34],63.9%
same,"viability, T/C",[35],51.9%
CC1COCCN1c1cc(-c2ccnn2C)c2ccnc(-c3ccn[nH]3)c2n1 (configuration not stated) + COc1cc2nc(C)nc(NC(C)c3cc(N)cc(C(F)(F)F)c3)c2cc1OC1CCOC1,IC50,[1],45.2 nM
same,IC50,[2],43 nM
same,IC50,[3],27.9 nM
same,IC50,[4],33.3 nM
same,IC50,[5],< 10 nM
same,"viability, T/C","second compound 0.1 µM, first compound 0.01 µM",75.4%
same,"viability, T/C",[6],61.2%
same,"viability, T/C",[7],25%
same,"viability, T/C",[8],19.5%
same,"viability, T/C",[9],15.1%
same,"viability, T/C",[10],15.2%
same,"viability, T/C","second compound 0.316 µM, first compound 0.01 µM",83.4%
same,"viability, T/C",[12],59.3%
same,"viability, T/C",[13],24.5%
same,"viability, T/C",[14],17.8%
same,"viability, T/C",[15],15.4%
same,"viability, T/C",[16],15.3%
same,"viability, T/C","second compound 1 µM, first compound 0.01 µM",76.3%
same,"viability, T/C",[18],46.6%
same,"viability, T/C",[19],24.1%
same,"viability, T/C",[20],13.6%
same,"viability, T/C",[21],17.7%
same,"viability, T/C",[22],15.9%
same,"viability, T/C","second compound 3.16 µM, first compound 0.01 µM",70.4%
same,"viability, T/C",[24],51.6%
same,"viability, T/C",[25],16.2%
same,"viability, T/C",[26],11.2%
same,"viability, T/C",[27],15%
same,"viability, T/C",[28],14%
same,"viability, T/C","second compound 10 µM, first compound 0.01 µM",1.71%
same,"viability, T/C",[30],2.62%
same,"viability, T/C",[31],3.95%
same,"viability, T/C",[32],1.66%
same,"viability, T/C",[33],2.29%
same,"viability, T/C",[34],1.1%
COc1cc(Nc2ncc3c(n2)-c2ccc(Cl)cc2C(c2c(F)cccc2OC)=NC3)ccc1C(=O)O,"viability, T/C",compound 0.0316 µM,83.6% [middle of 5 runs]
same,"viability, T/C",compound 0.1 µM,79.6% [middle of 5 runs]
same,"viability, T/C",compound 0.316 µM,79.4% [middle of 5 runs]
same,"viability, T/C",compound 1 µM,83.3% [middle of 5 runs]
same,"viability, T/C",compound 3.16 µM,85.9% [middle of 5 runs]
same,"viability, T/C",compound 10 µM,72.5% [middle of 5 runs]
same,IC50,curve of compound,> 10000 nM
